Measured values as given in the NIST ThermoML archive (doi:10.1016/j.fluid.2016.08.036).
Numbers after ± are expanded uncertainties.

Test: mn = molality of the nth substance listed, in mol/kg
Conditions: 87 kPa, Liquid, Vibrating tube method

CCn1cc[n+](C)c1.O=S(=O)([O-])O [1-ethyl-3-methylimidazolium hydrogen sulfate] + O
mass density [kg/m3]
Conditions | m1 = 0.0363 | m1 = 0.0687 | m1 = 0.1026 | m1 = 0.1384 | m1 = 0.1716 | m1 = 0.2049 | m1 = 0.2391 | m1 = 0.2718 | m1 = 0.3034 | m1 = 0.3375
293.15 K | 1000.86 ± 6 | 1003.08 ± 6 | 1005.3 ± 6 | 1007.57 ± 6 | 1009.63 ± 6 | 1011.67 ± 6 | 1013.72 ± 6 | 1015.68 ± 6 | 1017.53 ± 6 | 1019.54 ± 6
298.15 K | 999.65 ± 6 | 1001.82 ± 6 | 1003.99 ± 6 | 1006.22 ± 6 | 1008.23 ± 6 | 1010.23 ± 6 | 1012.24 ± 6 | 1014.17 ± 6 | 1016 ± 6 | 1017.98 ± 6
303.15 K | 998.2 ± 6 | 1000.33 ± 6 | 1002.46 ± 6 | 1004.64 ± 6 | 1006.63 ± 6 | 1008.6 ± 6 | 1010.58 ± 6 | 1012.47 ± 6 | 1014.26 ± 6 | 1016.21 ± 6
308.15 K | 996.54 ± 6 | 998.63 ± 6 | 1000.73 ± 6 | 1002.87 ± 6 | 1004.82 ± 6 | 1006.76 ± 6 | 1008.7 ± 6 | 1010.58 ± 6 | 1012.34 ± 6 | 1014.25 ± 6
313.15 K | 994.68 ± 6 | 996.73 ± 6 | 998.8 ± 6 | 1000.91 ± 6 | 1002.83 ± 6 | 1004.74 ± 6 | 1006.66 ± 6 | 1008.5 ± 6 | 1010.24 ± 6 | 1012.13 ± 6
